The text below walks through data of patent US20060105061A1, “Galenical composition” (priority 2004, published 2006).

Like-named read-outs stand apart in the source and are kept apart here.

The test system of experiment [1] is lysosomal fractions. Briefly: Oxidative damage tests of lysosomes: enzyme release with AAPH or AMVN radical generators. Format: biochemical, Wistar rats. The note with it: 10^−4M, ± SE. As to the method: (§1) Preparation of lysosomal fractions: After homogenizing in 9 volumes of 0.3 M sucrose, the liver was centrifuged at 450×g for 10 min. The supernatants were again centrifuged at 3500×g for 10 min, and the lysosome-containing supernatant was centrifuged at 10000×g for 10 min. The pellets were washed and centrifuged at 10000×g for 10 min, and resuspended in the sucrose buffer to a protein concentration of 15 mg/ml.
Oxidative damage tests of lysosomes: Assays for the release of acid phosphatase and β-N-acetylglucosaminidase from lysosomes were carried out by incubating lysosomal suspensions in the presence of test compounds. […] For this experiment, lysosomal suspensions were preincubated in the presence of 1 mM of the test compounds for 30 min and centrifuged at 12000×g for 10 min. Then the pellets were washed in 0.15 M KCl-5 mM Tris buffer (pH 7.4), centrifuged and re-suspended in 0.1M acetate buffer (pH 5.5).

Experiment [2] deals with lysosomal fractions. As to the kind of experiment: Lysosome fragility test: LDH leakage and β-galactosidase release with metal ions. To be noted: YHK at the higher concentration, p<0.05. It is filed as biochemical, Wistar rats. As to the method: as §1
Lysosome fragility test: The fraction was incubated with the test compound and each of metal ions and β-galactosidase activity was measured in accordance with the method of Olsson et al. (Anal Cell Pathol 1990; 2: 179-188), using 4-methylumbelliferyl-β-galactosidase as a substrate. The results were expressed as percentage of total β-galactosidase released. Lactate dehydrogenase leakage was also measured in the culture medium in accordance with the method of Hillaire et al. (Hepatology 1995; 22: 82-87).

Experiment [3] deals with normal hepatocytes. Briefly: Metal-induced lipid peroxidation (MDA) in normal cultured hepatocytes. Format: cell-based, Wistar rats. The note with it: for IC50: Rattus norvegicus, Hepatocyte, normal hepatocytes, 100 μM, read-out: IC50 of lipid peroxidation inhibition. The source says:
(§2) Isolation and culture of hepatocytes: Male Wistar rats weighing 180 to 210 g were fed with standard chow and water ad libitum. Hepatocytes were isolated by collagenase perfusion method as described by Wolkoff et al. (J Clin Invest 1987; 79: 1259-1268). Briefly, the liver was perfused with collagenase type IV (Sigma Chemical, St. Louis, Mo., USA) and isolated hepatocytes were suspended in culture medium consisting of Waymouth's 752/1 (Gibco, Grand Island, N.Y., USA) containing 5% heat-inactivated fetal bovine serum, 2.5 mM CaCl2, 5 μg/mL bovine insulin (Sigma), 100 U/mL penicillin and 0.1 mg/mL streptomycin. The isolated cells were further fractionated on Percoll density gradients to obtain a viability higher than 98%, as ascertained by trypan blue. Approximately 1.5×10^6 cells in 3 mL or approximately 5.0×10^6 cells in 10 mL in individual 60- or 100-mm diameter Lux culture dishes were placed in an incubator in an atmosphere of […] at 37° C., and then separately cultured. After a 9 hr incubation, the monolayer of hepatocytes was cultured for an additional 12 hr in the medium containing 1.0 mM α-linolenic acid (LNA)-bovine serum albumin (BSA). Seventy percent or more of added LNA was adsorbed by cultured cells after incubation.
(§3) After incubation for 6 hr, the medium was separated. Malonyldialdehyde (MDA) in the medium was assessed by a slight modification of the Uchiyama and Mihara method (Anal Biochem 1978; 86: 271-278). Briefly, to 0.1 ml of the medium in a 12 ml glass tube, 3 ml of 1% […] and 1 ml of 0.67% thiobarbituric acid were added and heated at 100° C. for 45 min. After cooling in ice water, 4 ml of n-butanol was added and the resulting mixture was shaken and then centrifuged to separate the butanol layer. The fluorescence intensity in the butanol layer was assayed at the excitation and emission wavelengths of 515 and 553 nm, respectively. The auto-oxidation products of fatty acid in the medium were within 0.3 nmol and were used as blank. Dimethyl sulfoxide (20 μl) was diluted in 2000 μl of the culture medium, including control cultures of metal ions only in the absence of the test compounds and the final concentration of 1% dimethyl sulfoxide had no measurable effect on lipid peroxidation in basal cultured hepatocytes.

For experiment [4], the system named is LNA-loaded hepatocytes. As to the kind of experiment: Metal-induced lipid peroxidation (MDA) in LNA-loaded hepatocytes. Format: cell-based, Wistar rats. To be noted: Rattus norvegicus, Hepatocyte, LNA-loaded cells, 100 μM, read-out: IC50 of lipid peroxidation inhibition.
From the text: as §2
as §3, with “Dimethyl sulfoxide (20 μl) was diluted in 2000 μl of the culture medium, including control cultures of metal ions only in the absence of the test compounds and the final concentration of 1% dimethyl sulfoxide had no measurable effect on lipid peroxidation in basal cultured hepatocytes.” left out

Consider `COc1cc(C2Oc3cc([C@H]4Oc5cc(O)cc(O)c5C(=O)[C@@H]4O)ccc3OC2CO)ccc1O` (stereo partly drawn) [Sylibin, sylibin], for which the results for the “Acid phosphatase release, enzyme activity” value in experiment [1] (AAPH-induced release) and in experiment [1] (AMVN-induced release) were 51.9 ± 5.6 % of control and 83.9 ± 10.4 % of control, respectively. The “β-N-acetylglucosaminidase release, enzyme activity” value in experiment [1] (AAPH-induced release) is reported as 54.6 ± 4.7 % of control; in experiment [1] (AMVN-induced release) it was 77.3 ± 7.4 % of control. For the same compound, in experiment [2], the “β-galactosidase release from lysosomes” value was “significantly decreased”. The IC50 in experiment [3] (CuSO4-induced) stood at 7.3 ± 0.3 µM; in experiment [3] (FeSO4-induced), 18.9 ± 3.2 µM; in experiment [3] (VCl3-induced), 10.8 ± 1.2 µM; in experiment [4] (CuSO4-induced), 16.8 ± 1.5 µM; in experiment [4] (FeSO4-induced) it was 79.9 ± 9.2 µM; in experiment [4] (VCl3-induced), 17.3 ± 1.2 µM. Also, the “MDA generation in the medium” value in experiment [3] (metal catalysts, up to 6 hr, p<0.05) is “significantly decreased”.
